Here are results for 35 molecules from patent publication US10934274B2, “Quinoline derivatives as TAM RTK inhibitors” (Qurient Co., Ltd., priority 2015, dated 2021).

The test system of assay [1] is Axl phosphorylation in transiently transfected HEK293T cells. The experiment in a line: Cellular Axl phosphorylation assay. The format is cell-based. The conditions noted are these: Homo sapiens, HEK-293T; HEK293T cells transfected with Axl, 1 hour compound treatment, Phospho-Axl vs Total-Axl. The method in brief:
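Axl-RTK was overexpressed by transfection in HEK293T cells to drive trans-autophosphorylation; cells were exposed to test compound for 1 hour. Phospho-Axl and total Axl were captured in lysates and detected by MSD electrochemiluminescence. IC50 was set between the DMSO group and the empty-vector-transfected minimum.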

The target in a further assay is T1, TYRO3 (Homo sapiens, UniProt Q06418).
T1 construct: purchased Life Technologies
T1 sequence (Q06418 41-890): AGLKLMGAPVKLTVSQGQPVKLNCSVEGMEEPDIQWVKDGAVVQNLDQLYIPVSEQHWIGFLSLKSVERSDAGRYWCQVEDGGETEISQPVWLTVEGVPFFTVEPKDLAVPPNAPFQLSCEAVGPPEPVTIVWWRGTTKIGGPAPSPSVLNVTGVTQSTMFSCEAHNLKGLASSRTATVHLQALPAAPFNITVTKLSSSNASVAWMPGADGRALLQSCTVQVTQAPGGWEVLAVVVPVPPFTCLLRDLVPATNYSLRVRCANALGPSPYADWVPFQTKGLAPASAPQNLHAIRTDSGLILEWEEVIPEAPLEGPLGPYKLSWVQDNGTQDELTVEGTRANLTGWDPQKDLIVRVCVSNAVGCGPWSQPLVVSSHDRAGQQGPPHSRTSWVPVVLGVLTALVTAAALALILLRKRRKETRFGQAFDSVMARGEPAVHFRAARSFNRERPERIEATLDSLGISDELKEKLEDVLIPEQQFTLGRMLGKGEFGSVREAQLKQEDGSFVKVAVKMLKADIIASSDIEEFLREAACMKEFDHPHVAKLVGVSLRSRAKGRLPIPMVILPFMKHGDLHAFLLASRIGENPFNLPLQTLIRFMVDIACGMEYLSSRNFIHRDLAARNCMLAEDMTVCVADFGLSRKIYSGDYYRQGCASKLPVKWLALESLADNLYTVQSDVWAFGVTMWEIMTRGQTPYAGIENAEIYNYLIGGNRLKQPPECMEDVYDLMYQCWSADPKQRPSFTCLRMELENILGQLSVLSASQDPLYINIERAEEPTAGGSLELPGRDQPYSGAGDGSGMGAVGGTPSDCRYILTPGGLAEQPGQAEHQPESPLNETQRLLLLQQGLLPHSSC
The experiment in a line: LanthaScreen Eu kinase binding assay, TYRO3. Conditions: Tracer 236. A general note: In TR-FRET formats the signal depends on donor and acceptor labels being close together.

The test system of a further assay is HCC827/ER cells. In words: WST-1 cell viability assay in erlotinib-resistant cells. Conditions: compound combined with Erlotinib at constant 1:1 ratio, 3 days, FBS 1%. Background: Tetrazolium assays rely on reduction of a dye to a coloured formazan, in cell work by metabolically active cells.

pIC50, pKd: −log10 of the molar value.

Protocol for HCC827/ER cells: The killed cells were discarded and the remaining cells were cultured in a drug-free medium up to 80% confluence. Subsequently, cells were continuously exposed to increasing drug doses of up to 10 μM over a period of 8 months.
HCC827/ER cells were seeded in a 96-well plate with their respective media containing 10% FBS at 5000 cells/well. After seeding, the HCC827/ER cells were incubated for approximately 24 hours. […] The viability of the HCC827/ER cells was determined by adding WST-1 reagent according to Manufacturer's instructions (DoGenbio co., Ltd) and incubating for four hours. The plates were then read using an absorbance of 440 nm on Tecan Microplate reader (Infinite M200 pro, TECAN). The HCC827/ER cells' viability were calculated relative to vehicle (DMSO) control wells.

Take `CCOc1cn(CCOC(F)(F)F)nc1C(=O)Nc1ccc(Oc2ccnc3cc(OC)c(OC)cc23)cn1` [Compound 38]: the pIC50 – broadly, −log10 of the IC50, conventionally taken in molar units – in assay [1] was more than 7.00. The pKd (commonly the Kd on a negative log10 scale, so that one unit is a factor of ten) on TYRO3 is 6.00 to 7.00. For the same molecule, the “Combination effect of compound and erlotinib on inhibition activity in Erlotinib-resistant cell-line” value in the assay with HCC827/ER cells is given as “synergistic effect”.

In turn, `CCC(C)Oc1cc2nccc(Oc3ccc(NC(=O)c4nn(-c5cccnc5)cc4OCC(F)(F)F)nc3)c2cc1OC` (centres unmarked) [Compound 234] had a negative logarithm of the IC50 (pIC50) in assay [1] of more than 7.00. The pKd on TYRO3 is more than 7.00.

`COc1cc2nccc(Oc3ccc(NC(=O)c4nn(-c5cnc(Cl)cn5)cc4OCC(F)(F)F)nc3)c2cc1OC` [Compound 236]: the negative-log IC50 (pIC50) in assay [1] is more than 7.00. This molecule gave a pKd on TYRO3 of more than 7.00.

As to `COc1cc2nccc(Oc3ccc(NC(=O)c4nn(-c5cnc(N)nc5)cc4OCC(F)(F)F)nc3)c2cc1OC` [Compound 237], the pIC50 in assay [1] was more than 7.00. At TYRO3, this molecule showed a negative logarithm of the Kd (pKd) of more than 7.00.

Molecule `COc1cc2nccc(Oc3ccc(NC(=O)c4nn(-c5cccnc5)cc4OCC4CC4)nc3)c2cc1OC(F)(F)F` [Compound 239] showed a pIC50 in assay [1] of more than 7.00. Moreover, the negative logarithm of the Kd (pKd) on TYRO3 was more than 7.00.

The molecule `COc1cc2nccc(Oc3ccc(NC(=O)c4nn(-c5cnc(N)nc5)cc4OCC4CC4)nc3)c2cc1OC` [Compound 240] showed a pIC50 in assay [1] of more than 7.00. On TYRO3, the pKd is more than 7.00.

Take `CCOc1cn(-c2cnc(N)nc2)nc1C(=O)Nc1ccc(Oc2ccnc3cc(OC)c(OC(F)(F)F)cc23)cn1` [Compound 241]: in assay [1], the negative logarithm of the IC50 (pIC50) is more than 7.00. This molecule had a pKd on TYRO3 not above 6.00.

As for `CCOc1cn(-c2cnc(N)nc2)nc1C(=O)Nc1ccc(Oc2ccnc3cc(OC)c(OC(F)(F)F)cc23)cc1F` [Compound 242], the negative logarithm of the IC50 (pIC50) in assay [1] is 6.00 to 7.00. The molecule further gave a negative logarithm of the Kd (pKd) on TYRO3 not above 6.00.

Take `COc1cc2c(Oc3ccc(NC(=O)c4nn(-c5cnc(N)nc5)cc4OCC(F)(F)F)c(F)c3)ccnc2cc1OC(C)C` [Compound 243]: in assay [1], the negative-log IC50 (pIC50) was more than 7.00. This molecule also had a pKd at TYRO3 of more than 7.00.

In turn, `COc1cc2nccc(Oc3ccc(NC(=O)c4nn(-c5ccc(OC(F)(F)F)cc5Cl)cc4OCC4CC4)nc3)c2cc1OC` [Compound 244] gave a pIC50 in assay [1] of more than 7.00. Moreover, the pKd at TYRO3 was more than 7.00.

In the case of `COc1cc2c(Oc3ccc(NC(=O)c4nn(-c5cnc(N)cn5)cc4OCC(F)(F)F)c(F)c3)ccnc2cc1OC(C)C` [Compound 246], the pIC50 in assay [1] is more than 7.00. The molecule further had a negative-log Kd (pKd) on TYRO3 of more than 7.00.

For the molecule `COc1cc2nccc(Oc3ccc(NC(=O)c4nn(-c5cnccc5C(F)(F)F)cc4OCC4CC4)nc3)c2cc1OC` [Compound 247], in assay [1], the pIC50 is more than 7.00. Also, the negative-log Kd (pKd) at TYRO3 is more than 7.00.

Molecule `COc1cc2nccc(Oc3ccc(NC(=O)c4nn(-c5cnc(N)cn5)cc4OCC(F)(F)F)nc3)c2cc1OC` [Compound 248] had a negative-log IC50 (pIC50) in assay [1] of more than 7.00. In addition, the pKd at TYRO3 is more than 7.00.

In assay [1], `COc1cc2nccc(Oc3ccc(NC(=O)c4nn(-c5cnc(N)cn5)cc4OCC4CC4)nc3)c2cc1OC` [Compound 249] gave a pIC50 of more than 7.00. In addition, at TYRO3, the pKd is more than 7.00.

Turning to `COc1cc2nccc(Oc3ccc(NC(=O)c4nn(-c5cnc(N)cn5)cc4OCC(F)(F)F)c(F)c3)c2cc1OC` [Compound 252], the negative logarithm of the IC50 (pIC50) in assay [1] was more than 7.00. On TYRO3, this molecule showed a negative logarithm of the Kd (pKd) of more than 7.00.

Regarding `COc1cc2c(Oc3ccc(NC(=O)c4nn(-c5cnc(N)cn5)cc4OCC(F)(F)F)nc3)ccnc2cc1OC(C)C` [Compound 253], the negative-log IC50 (pIC50) in assay [1] is more than 7.00. Moreover, on TYRO3, the pKd is more than 7.00.

As for `COc1cc2nccc(Oc3ccc(NC(=O)c4nn(-c5cnc(N)nc5)cc4OC(F)F)nc3)c2cc1OC` [Compound 254], in assay [1], the negative-log IC50 (pIC50) is more than 7.00. For the same molecule, the negative-log Kd (pKd) at TYRO3 was not above 6.00.

For the molecule `COc1cc2nccc(Oc3ccc(NC(=O)c4nn(-c5cccnc5)cc4OCC4CC4)nc3)c2cc1OC` [Compound 255], the negative-log IC50 (pIC50) in assay [1] was more than 7.00. At TYRO3, this molecule showed a pKd of more than 7.00.

In assay [1], `COc1cc2c(Oc3ccc(NC(=O)c4nn(-c5cnc(N)nc5)cc4OCC(F)(F)F)nc3)ccnc2cc1OC(C)C` [Compound 257] showed a pIC50 of more than 7.00. The pKd at TYRO3 is more than 7.00.

For the molecule `COc1cc2nccc(Oc3ccc(NC(=O)c4nn(-c5ccc(F)cc5C)cc4OCC4CC4)nc3)c2cc1OC` [Compound 258], in assay [1], the pIC50 was more than 7.00. Further, the pKd on TYRO3 is more than 7.00.

Regarding `COc1cc2nccc(Oc3ccc(NC(=O)c4nn(-c5cnc(N)nc5)cc4OCC(F)(F)F)c(F)c3)c2cc1OC` [Compound 259], in assay [1], the negative-log IC50 (pIC50) was more than 7.00. The molecule further showed a pKd at TYRO3 of more than 7.00.

Turning to `COc1cc2nccc(Oc3ccc(NC(=O)c4nn(-c5cnc(N)nc5)cc4OC(C)C)nc3)c2cc1OC` [Compound 260], the pIC50 in assay [1] is more than 7.00. Besides, the pKd on TYRO3 was more than 7.00.

Turning to `COc1cc2nccc(Oc3ccc(NC(=O)c4nn(-c5cncnc5C5CC5)cc4OCC(F)(F)F)nc3)c2cc1OC` [Compound 261], in assay [1], the pIC50 was more than 7.00. Besides, the pKd at TYRO3 is more than 7.00.

In turn, `COc1cc2nccc(Oc3ccc(NC(=O)c4nn(-c5cnc(N)nc5)cc4OCC4CCC4)nc3)c2cc1OC` [Compound 262] gave a pIC50 in assay [1] of more than 7.00. At TYRO3, the negative-log Kd (pKd) was more than 7.00.

In turn, `COc1cc2nccc(Oc3ccc(NC(=O)c4nn(-c5ccc(F)cc5Cl)cc4OCC4CC4)nc3)c2cc1OC` [Compound 263] had a pIC50 in assay [1] of more than 7.00. At TYRO3, the negative logarithm of the Kd (pKd) is more than 7.00.

For the molecule `COc1cc2nccc(Oc3ccc(NC(=O)c4nn(-c5ccc(F)cc5OC)cc4OCC4CC4)nc3)c2cc1OC` [Compound 264], the negative logarithm of the IC50 (pIC50) in assay [1] was more than 7.00. This molecule showed a negative-log Kd (pKd) at TYRO3 of more than 7.00.

The molecule `COc1cc2nccc(Oc3ccc(NC(=O)c4nn(-c5cnc(N)nc5)cc4OCC4CNC4)nc3)c2cc1OC` [Compound 265] gave a pIC50 in assay [1] not above 6.00. The molecule also showed a negative-log Kd (pKd) at TYRO3 not above 6.00.

Take `COc1cc2nccc(Oc3ccc(NC(=O)c4nn(-c5ccc(F)cc5N5CCOCC5)cc4OCC4CC4)nc3)c2cc1OC` [Compound 266]: in assay [1], the pIC50 is more than 7.00. This molecule showed a pKd at TYRO3 of more than 7.00.

As for `COc1cc2nccc(Oc3ccc(NC(=O)c4nn(-c5ccc(F)cc5F)cc4OCC4CC4)nc3)c2cc1OC` [Compound 267], the pIC50 in assay [1] is more than 7.00. For the same molecule, the pKd on TYRO3 was more than 7.00.

Regarding `COc1cc2nccc(Oc3ccc(NC(=O)c4nn(-c5ccc(F)cc5F)cc4OCC(F)(F)F)nc3)c2cc1OC` [Compound 268], in assay [1], the pIC50 was more than 7.00. On TYRO3, the pKd is more than 7.00.

`COc1cc2nccc(Oc3ccc(NC(=O)c4nn(-c5cnc(N)nc5)cc4OCC4COC4)nc3)c2cc1OC` [Compound 269] showed a pIC50 in assay [1] of more than 7.00. On TYRO3, the pKd was more than 7.00.

Take `COc1cc2nccc(Oc3ccc(NC(=O)c4nn(-c5ccc(F)cc5C5CCCC5)cc4OCC4CC4)nc3)c2cc1OC` [Compound 270]: in assay [1], the pIC50 is more than 7.00. At TYRO3, this molecule gave a negative logarithm of the Kd (pKd) of 6.00 to 7.00.

For the molecule `COc1cc2nccc(Oc3ccc(NC(=O)c4nn(-c5ccc(F)cc5Oc5ccccc5)cc4OCC4CC4)nc3)c2cc1OC` [Compound 272], the pIC50 in assay [1] is more than 7.00. Besides, the pKd at TYRO3 is 6.00 to 7.00.

In the case of `COc1cc2nccc(Oc3ccc(NC(=O)c4nn(-c5ccc(F)cc5C(C)=O)cc4OCC4CC4)nc3)c2cc1OC` [Compound 273], the pIC50 in assay [1] is more than 7.00. At TYRO3, this molecule showed a pKd of 6.00 to 7.00.

As for `COc1cc2nccc(Oc3ccc(NC(=O)c4nn(-c5ccc(F)c(C(C)=O)c5)cc4OCC4CC4)nc3)c2cc1OC` [Compound 274], in assay [1], the negative logarithm of the IC50 (pIC50) was more than 7.00. The same molecule gave a negative logarithm of the Kd (pKd) on TYRO3 of more than 7.00.
